Active and inactive are the calls of the source. The rule behind the calls is not given here.
Tests used:
CDK12/Cyclin K = CDK12/Cyclin K (Homo sapiens, UniProt Q9NYV4); assay: Inhibition of human CDK12 (696 to 1082 residues) /cyclinK (1 to 300 residues) using ac-YSPTSPpSYSPTSFpS-YSPTSPpSY-[PEG2]-RR-amid peptide as substrate in presence of ATP measured after 2 hrs by ADP-Glo kinase assay; type: protein-complex assay
[1] = target: T1, Protein cereblon/Cyclin-K/Cyclin-dependent kinase 12 (Homo sapiens, UniProt O75909+Q9NYV4+Q96SW2); assay: Protac activity at human CRBN/CDK12/CycK in human Bel-7402 cells assessed as degradation of CDK12 at 3 uM measured after 24 hrs by Western blotting assay; type: cell-based
T1 sequence (O75909 whole entry, looked up): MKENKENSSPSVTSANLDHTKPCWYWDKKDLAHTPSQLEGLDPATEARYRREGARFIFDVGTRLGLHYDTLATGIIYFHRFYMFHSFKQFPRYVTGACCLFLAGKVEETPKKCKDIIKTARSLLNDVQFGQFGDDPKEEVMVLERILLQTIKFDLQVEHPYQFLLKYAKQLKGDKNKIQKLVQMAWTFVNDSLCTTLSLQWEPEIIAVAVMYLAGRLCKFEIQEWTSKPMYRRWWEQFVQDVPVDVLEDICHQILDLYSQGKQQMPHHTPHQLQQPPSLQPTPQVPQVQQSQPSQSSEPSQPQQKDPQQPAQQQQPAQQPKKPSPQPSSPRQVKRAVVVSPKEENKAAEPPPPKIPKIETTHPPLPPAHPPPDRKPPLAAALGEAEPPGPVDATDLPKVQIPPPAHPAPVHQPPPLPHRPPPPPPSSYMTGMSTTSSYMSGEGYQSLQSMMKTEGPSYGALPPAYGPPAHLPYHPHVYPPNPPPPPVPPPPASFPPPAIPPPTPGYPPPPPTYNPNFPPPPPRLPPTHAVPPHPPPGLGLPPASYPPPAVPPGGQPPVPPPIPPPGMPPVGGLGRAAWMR
T1 sequence (Q96SW2 whole entry, looked up): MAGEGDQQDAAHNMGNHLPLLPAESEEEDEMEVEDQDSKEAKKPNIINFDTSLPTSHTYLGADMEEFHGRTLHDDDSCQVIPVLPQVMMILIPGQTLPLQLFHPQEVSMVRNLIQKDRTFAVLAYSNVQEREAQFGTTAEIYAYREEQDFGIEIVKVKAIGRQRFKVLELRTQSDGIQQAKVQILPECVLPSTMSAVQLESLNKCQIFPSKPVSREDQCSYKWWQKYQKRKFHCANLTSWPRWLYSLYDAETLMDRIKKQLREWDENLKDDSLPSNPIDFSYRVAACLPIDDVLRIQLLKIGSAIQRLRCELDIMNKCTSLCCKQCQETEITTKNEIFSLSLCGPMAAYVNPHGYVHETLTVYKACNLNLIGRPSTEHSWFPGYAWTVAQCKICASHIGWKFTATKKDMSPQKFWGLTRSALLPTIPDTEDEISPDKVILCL
T1 sequence (Q9NYV4 whole entry, looked up): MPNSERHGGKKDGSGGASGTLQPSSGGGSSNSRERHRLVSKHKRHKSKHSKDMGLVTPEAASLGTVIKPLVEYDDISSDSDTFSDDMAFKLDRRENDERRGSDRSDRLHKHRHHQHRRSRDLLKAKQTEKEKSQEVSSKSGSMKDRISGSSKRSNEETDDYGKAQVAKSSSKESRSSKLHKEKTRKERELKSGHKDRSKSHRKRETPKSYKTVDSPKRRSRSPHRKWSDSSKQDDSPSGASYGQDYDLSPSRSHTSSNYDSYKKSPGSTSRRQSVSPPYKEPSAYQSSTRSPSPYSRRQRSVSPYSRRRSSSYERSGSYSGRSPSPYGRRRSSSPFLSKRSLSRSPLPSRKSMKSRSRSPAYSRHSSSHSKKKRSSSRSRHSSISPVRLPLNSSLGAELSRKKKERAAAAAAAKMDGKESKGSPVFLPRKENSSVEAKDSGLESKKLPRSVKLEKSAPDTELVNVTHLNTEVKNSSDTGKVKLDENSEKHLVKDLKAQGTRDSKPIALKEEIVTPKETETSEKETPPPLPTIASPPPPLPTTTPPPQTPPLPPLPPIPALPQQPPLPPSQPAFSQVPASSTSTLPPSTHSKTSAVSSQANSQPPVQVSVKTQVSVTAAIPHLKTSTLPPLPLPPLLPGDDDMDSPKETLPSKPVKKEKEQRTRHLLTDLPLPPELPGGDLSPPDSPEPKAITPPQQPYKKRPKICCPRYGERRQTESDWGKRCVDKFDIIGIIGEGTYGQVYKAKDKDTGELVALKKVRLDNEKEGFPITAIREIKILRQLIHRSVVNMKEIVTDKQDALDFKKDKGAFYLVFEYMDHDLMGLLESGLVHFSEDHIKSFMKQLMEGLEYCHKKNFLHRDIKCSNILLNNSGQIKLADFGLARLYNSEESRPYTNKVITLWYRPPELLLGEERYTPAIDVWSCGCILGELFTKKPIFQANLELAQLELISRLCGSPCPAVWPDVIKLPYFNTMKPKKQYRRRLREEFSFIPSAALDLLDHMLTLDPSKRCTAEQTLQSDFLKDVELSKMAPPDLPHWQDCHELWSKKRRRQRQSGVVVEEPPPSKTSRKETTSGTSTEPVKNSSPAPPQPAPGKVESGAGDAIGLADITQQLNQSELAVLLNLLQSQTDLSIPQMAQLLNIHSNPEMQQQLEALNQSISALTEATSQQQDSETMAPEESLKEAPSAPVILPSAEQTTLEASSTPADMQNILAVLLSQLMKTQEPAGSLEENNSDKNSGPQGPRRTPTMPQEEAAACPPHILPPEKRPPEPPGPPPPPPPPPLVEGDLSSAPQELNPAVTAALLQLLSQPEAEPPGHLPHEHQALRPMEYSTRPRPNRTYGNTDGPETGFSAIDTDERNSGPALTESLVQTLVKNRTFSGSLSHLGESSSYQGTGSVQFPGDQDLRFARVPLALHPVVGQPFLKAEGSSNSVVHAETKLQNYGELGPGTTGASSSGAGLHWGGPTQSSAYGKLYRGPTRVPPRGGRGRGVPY

[2] = target: T1, Protein cereblon/Cyclin-K/Cyclin-dependent kinase 12; assay: Protac activity at human CRBN/CDK12/CycK in human MDA-MB-231 cells assessed as degradation of CDK12 at 3 uM measured after 24 hrs by Western blotting assay; type: cell-based

Sequence of CDK12/Cyclin K (O75909 whole entry, the tested form may be a part): as the sequence (O75909 whole entry, looked up) above
Sequence of CDK12/Cyclin K (Q9NYV4 whole entry, the tested form may be a part): as the sequence (Q9NYV4 whole entry, looked up) above

Row | IC50 (CDK12/Cyclin K) [nM] | Activity [1] | Activity [2] | Compound
1 | 411 |  |  | COCCOCCOc1cc2[nH]c(CNc3nc(N4CCOCC4)nc4c3ncn4-c3cnn(C)c3)nc2cc1F
2 | 119 | Active | Active | CC(C)n1cnc2c(NCc3nc4cc(F)c(NCCCCCCNC(=O)COc5cccc6c5C(=O)N(C5CCC(=O)NC5=O)C6=O)cc4[nH]3)nc(N3CCOCC3)nc21 (centres undefined)
